Several values for one entry are separate records, joined by “and”; a condition that tells them apart may be missing. Identical values can stand only once.
Assays:
[1] = test system: mouse primary cortical neurons; assay: Cell volume measurement (calcein-AM) under hyperosmotic stress, primary cortical neurons
[2] = test system: CSF secretion by choroid plexus epithelium; assay: Rate of CSF production after IVH with intracerebroventricular drug; format: in vivo; settings: rat; ZT-1a treatment for 48 h at 10 µM
[3] = ZT-1a content in plasma and brain of sham and tMCAO mice (LC-MS/MS); format: in vivo, mouse; settings: for plasma ZT-1a concentration: Fig 6e; for plasma ZT-1a concentration / Brain tissue ZT-1a concentration: individual animals; for Brain tissue ZT-1a concentration: Fig 6f
[4] = test system: SPAK pSer373; assay: Choroid plexus SPAK/OSR1 immunoblot in rat post-hemorrhagic hydrocephalus (IVH) model; format: in vivo
[5] = molecular target: panel of 140 recombinant kinases; format: biochemical
Method: Supplementary Table 2. ZT-1a kinase profiling data6.
ZT-1a was tested at 10 and 1 µM against a panel of 140 recombinant kinases in an enzymatic
activity-based assay performed by the International Centre for Kinase Profiling in the MRC
Protein Phosphorylation and Ubiquitylation Unit. Values represent % residual kinase activity

[6] = test system: KCC3 pThr991; assay: Immunoblot of KCC site 1 phosphorylation (KCC3 Thr991) in HEK-293 cells transfected with FLAG-KCC3; format: cell-based, human; settings: for KCC3 pThr991 / KCC3: Fig S4b
[7] = rat CPe 48 h post IVH + 1a, replicates

In the case of `Cc1cc(C(C#N)c2ccc(Cl)cc2)c(Cl)cc1NC(=O)c1cc(Cl)ccc1O` (centres unmarked) [ZT-1a, 5-chloro-N-(5-chloro-4-((4-chlorophenyl)(cyano)methyl)-2-methylphenyl)-2-hydroxybenzamide], the “Cell water (relative change)” value ([1]; Fig 5b trace, Time 29.0051) is reported as 0.8403 relative change, the “Cell water (relative change)” value ([1]; Fig 5b trace, Time 30.005) is reported as 0.9491 relative change and the “Cell water (relative change)” value ([1]; Fig 5b trace, Time 31.005) is reported as 1.001 relative change. The “Cell water (relative change)” value ([1]; Fig 5b trace, Time 32.005) was 1.095 relative change, the “Cell water (relative change)” value ([1]; Fig 5b trace, Time 33.0052) was 1.18 relative change and the “Cell water (relative change)” value ([1]; Fig 5b trace, Time 34.0052) was 1.2174 relative change. The “Cell water (relative change)” value ([1]; Fig 5b trace, Time 35.0052) was 1.246 relative change, the “Cell water (relative change)” value ([1]; Time 1.0036) was 0.9411 and the “Cell water (relative change)” value ([1]; Time 2.0038) was 0.9678. The “Cell water (relative change)” value ([1]; Time 3.0038) was 0.9873, the “Cell water (relative change)” value ([1]; Time 4.0037) was 1.0365 and the “Cell water (relative change)” value ([1]; Time 5.0037) was 1.0673. The “Cell water (relative change)” value ([1]; Time 6.0037) was 0.3755, the “Cell water (relative change)” value ([1]; Time 7.0039) was 0.3590 and the “Cell water (relative change)” value ([1]; Time 8.0040) was 0.3612. For the same molecule, the “Cell water (relative change)” value ([1]; Time 9.0042) was 0.3419, the “Cell water (relative change)” value ([1]; Time 10.0039) was 0.3164 and the “Cell water (relative change)” value ([1]; Time 11.0039) was 0.3660. For the same molecule, the “Cell water (relative change)” value ([1]; Time 12.0039) was 0.3218, the “Cell water (relative change)” value ([1]; Time 13.0041) was 0.3220 and the “Cell water (relative change)” value ([1]; Time 14.0041) was 0.3646. For the same molecule, the “Cell water (relative change)” value ([1]; Time 15.0040) was 0.4243, the “Cell water (relative change)” value ([1]; Time 16.0040) was 0.3424 and the “Cell water (relative change)” value ([1]; Time 17.0040) was 0.4003. The “Cell water (relative change)” value ([1]; Time 18.0045) was 0.3516, the “Cell water (relative change)” value ([1]; Time 19.0042) was 0.3431 and the “Cell water (relative change)” value ([1]; Time 20.0042) was 0.3283. The “Cell water (relative change)” value ([1]; Time 21.0042) was 0.3207, the “Cell water (relative change)” value ([1]; Time 22.0041) was 0.3314 and the “Cell water (relative change)” value ([1]; Time 23.0044) was 0.2994. The “Cell water (relative change)” value ([1]; Time 24.0044) was 0.3371, the “Cell water (relative change)” value ([1]; Time 25.0043) was 0.3486 and the “Cell water (relative change)” value ([1]; Time 26.0043) was 0.4588. For the same molecule, the “Cell water (relative change)” value ([1]; Time 27.0043) was 0.5973, the “Cell water (relative change)” value ([1]; Time 28.0045) was 0.7262 and the “Cell water (relative change)” value ([1]; Time 29.0044) was 0.8045. For the same molecule, the “Cell water (relative change)” value ([1]; Time 30.0044) was 0.9325, the “Cell water (relative change)” value ([1]; Time 31.0046) was 1.0105 and the “Cell water (relative change)” value ([1]; Time 32.0046) was 1.1112. The “Cell water (relative change)” value ([1]; Time 33.0046) was 1.1274, the “Cell water (relative change)” value ([1]; Time 34.0045) was 1.2089 and the “Cell water (relative change)” value ([1]; Time 35.0045) was 1.2137. The “regulatory volume increase (RVI) response of primary cortical neurons” value ([1]; hyperosmotic stress 370 mOsm, ZT-1a 3 μM, BMT 10 μM) was “no RVI response”, the “cell shrinkage of primary cortical neurons” value ([1]; hypertonic 370 mOsm/kg H2O, earlier manuscript version quoted in peer-review file) was 87% and the “initial rate of cell shrinkage” value ([1]; hypertonic stress, earlier manuscript version quoted in peer-review file) was 29 ± 9 % vol/min. The “neurons exhibiting RVI / cells analysed” value ([1]; hypertonicity-mediated osmotic shrinkage, three cultures) was 0/49, the “decrease of post-IVH CSF hypersecretion” value [2] was ~ 2.3 fold and the “ZT-1a concentration in CL and IL hemispheres of ischemic brains relative to sham brains” value ([3]; 2 h after 5 mg/kg i.p.) was ~ 1.8 fold. The “plasma ZT-1a levels in ischemic versus non-ischemic sham mice” value ([3]; 2 h after 5 mg/kg i.p.) was “indistinguishable”, the “plasma ZT-1a concentration” value ([3]; Sham mice) was 329.00 ng/mL and 282.00 ng/mL and 324.00 ng/mL and 520.00 ng/mL and 751.00 ng/mL and 743.08 ng/mL and 457.88 ng/mL and 359.25 ng/mL and 143.14 ng/mL and 588.55 ng/mL and 379.00 ng/mL and the “plasma ZT-1a concentration” value ([3]; tMCAO mice) was 1494.00 ng/mL and 655.00 ng/mL and 82.00 ng/mL and 678.79 ng/mL and 587.05 ng/mL and 302.56 ng/mL and 827.38 ng/mL and 531.10 ng/mL and 662.00 ng/mL. The “Brain tissue ZT-1a concentration” value ([3]; sham, CL hemisphere) was 221.00 ng/gm tissue and 107.00 ng/gm tissue and 97.00 ng/gm tissue and 50.00 ng/gm tissue and 133.00 ng/gm tissue and 120.00 ng/gm tissue and 67.00 ng/gm tissue and 61.00 ng/gm tissue and 77.00 ng/gm tissue and 131.00 ng/gm tissue, the “Brain tissue ZT-1a concentration” value ([3]; sham, IL hemisphere) was 174.00 ng/gm tissue and 130.00 ng/gm tissue and 100.00 ng/gm tissue and 155.00 ng/gm tissue and 76.00 ng/gm tissue and 115.00 ng/gm tissue and 89.00 ng/gm tissue and 78.00 ng/gm tissue and 59.00 ng/gm tissue and 139.00 ng/gm tissue and the “Brain tissue ZT-1a concentration” value ([3]; tMCAO, CL hemisphere) was 161.00 ng/gm tissue and 118.00 ng/gm tissue and 139.00 ng/gm tissue and 285.00 ng/gm tissue and 269.00 ng/gm tissue and 132.00 ng/gm tissue and 326.00 ng/gm tissue and 170.00 ng/gm tissue and 163.00 ng/gm tissue and 133.00 ng/gm tissue and 245.00 ng/gm tissue. The “Brain tissue ZT-1a concentration” value ([3]; tMCAO, IL hemisphere) was 217.00 ng/gm tissue and 131.00 ng/gm tissue and 171.00 ng/gm tissue and 369.00 ng/gm tissue and 215.00 ng/gm tissue and 238.00 ng/gm tissue and 154.00 ng/gm tissue and 150.00 ng/gm tissue and 199.00 ng/gm tissue, the “penetration across the healthy BBB” value ([3]; normal naive mice) was “minimal” and the “SPAK / Actin” value [4, 7] was 2.39 and 2.21 and 2.2 and 2.51 and 2.16 and 2.37. For the same molecule, the “SPAK pSer373 / Actin” value [4, 7] was 0.69 and 0.85 and 1.13 and 0.73 and 0.89 and 1.07, the “reduction of IVH-induced expression of pSPAK in CPe” value ([4]; rat, ICV ZT-1a, 48 h post IVH, n = 3) was 55 ± 3.6% and the “kinases of the 140 tested with >50% inhibition” value ([5]; 1 µM ZT-1a) was “only a single kinase”. For the same molecule, the “share of the 140 kinases not inhibited by >70%” value ([5]; 1 µM ZT-1a vs DMSO control) was 98%, the inhibition at 3 µM ([6]; Homo sapiens, HEK293, 3 µM, HEK-293 cells, n = 4, read-out: inhibition of phosphorylation of KCC sites 1/2) was 65 to 77% and the “KCC3 pThr991 / KCC3” value ([6]; ZT-1a 0.3 uM) was 0.89 and 0.932 and 0.861 and 0.828. For the same molecule, the “KCC3 pThr991 / KCC3” value ([6]; ZT-1a 1 uM) was 0.63 and 0.651 and 0.702 and 0.601 and the “KCC3 pThr991 / KCC3” value ([6]; ZT-1a 3 uM) was 0.65 and 0.601 and 0.553 and 0.517.

— PMC6946680, “Modulation of brain cation-Cl^− cotransport via the SPAK kinase inhibitor ZT-1a” (Nature Communications, 2020)
